In patent US12577234B2, “Antagonists of the muscarinic acetylcholine receptor M4” (Vanderbilt University, priority 2017, dated 2026) one finds IC50 and Emin data, which are given here for 21 molecules.

The test addresses T1, human mAChR M4 (Homo sapiens, UniProt P08173).
T1 construct: expressed in transfected cells; host or cells: CHO-K1 (ATCC), stably co-expressing chimeric G protein Gqi5
T1 sequence (P08173 1-479): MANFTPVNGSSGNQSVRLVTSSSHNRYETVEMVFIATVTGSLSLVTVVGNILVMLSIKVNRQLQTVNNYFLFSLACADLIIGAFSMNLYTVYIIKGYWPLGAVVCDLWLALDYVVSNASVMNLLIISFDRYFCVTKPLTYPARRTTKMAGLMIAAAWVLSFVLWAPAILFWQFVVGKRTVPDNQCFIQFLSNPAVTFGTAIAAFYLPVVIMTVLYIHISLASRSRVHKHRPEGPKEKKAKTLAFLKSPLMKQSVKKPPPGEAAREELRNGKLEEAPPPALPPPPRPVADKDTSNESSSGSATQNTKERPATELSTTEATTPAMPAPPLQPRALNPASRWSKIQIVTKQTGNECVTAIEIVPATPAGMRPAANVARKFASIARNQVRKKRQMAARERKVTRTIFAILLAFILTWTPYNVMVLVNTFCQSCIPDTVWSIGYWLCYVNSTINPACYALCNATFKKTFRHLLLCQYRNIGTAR
Nature of the test: mAChR M4 cell-based functional assay (calcium mobilization, EC80 acetylcholine), human M4. As to conditions: Table 9; for IC50: M4/Gqi5/CHO-K1 cells, decrease of EC80 acetylcholine response; for Emin: human M4, % ACh maximum at 30 μM. Put shortly: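 CHO-K1 cells stably expressing human M4 with chimeric Gqi5; intracellular calcium rise read on FDSS as fluorescence static ratio at 1 Hz. Compounds in 10-point 1:3 dilution series; IC50 taken as concentration-dependent decrease of the EC80 acetylcholine response, four-parameter logistic fit.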

Usually IC50 stands for the concentration at which inhibition is half-maximal. Consider `Fc1ccc(Cl)c(-c2ccc(OCC3C[C@@H]4CN(CC56CC7CC(CC(C7)C5)C6)C[C@@H]4C3)nn2)c1` (stereo partly drawn) [Compound 107, (3aR,6aS)-2-(1-adamantylmethyl)-5-[[6-(2-chloro-5-fluoro-phenyl)pyridazin-3-yl]oxymethyl]-3,3a,4,5,6,6a-hexahydro-1H-cyclopenta[c]pyrrole], for which the IC50 amounted to 1090 nM and the Emin is given as 5.03%.

For the molecule `Fc1ccc(Cl)c(-c2ccc(OCC3C[C@@H]4CN(CC5CC6C=CC5C6)C[C@@H]4C3)nn2)c1` (stereo partly drawn) [Compound 108, (3aR,6aS)-2-(5-bicyclo[2.2.1]hept-2-enylmethyl)-5-[[6-(2-chloro-5-fluoro-phenyl)pyridazin-3-yl]oxymethyl]-3,3a,4,5,6,6a-hexahydro-1H-cyclopenta[c]pyrrole], the 50% inhibitory concentration (IC50) came out at 134 nM and the Emin came out at 3.90%.

With `CCC(C)CN1C[C@H]2CC(COc3ccc(-c4cc(F)ccc4Cl)nn3)C[C@H]2C1` (stereo partly drawn) [Compound 109, (3aR,6aS)-5-[[6-(2-chloro-5-fluoro-phenyl)pyridazin-3-yl]oxymethyl]-2-(2-methylbutyl)-3,3a,4,5,6,6a-hexahydro-1H-cyclopenta[c]pyrrole], the IC50 was found to be 583 nM and the Emin turned out to be 4.62%.

As for `CCCC(C)CN1C[C@H]2CC(COc3ccc(-c4cc(F)ccc4Cl)nn3)C[C@H]2C1` (stereo partly drawn) [Compound 110, (3aR,6aS)-5-[[6-(2-chloro-5-fluoro-phenyl)pyridazin-3-yl]oxymethyl]-2-(2-methylpentyl)-3,3a,4,5,6,6a-hexahydro-1H-cyclopenta[c]pyrrole], the IC50 stood at 773 nM and the Emin was determined as 4.60%.

On to `Fc1ccc(Cl)c(-c2ccc(OCC3C[C@@H]4CN(CC5CCCCC5)C[C@@H]4C3)nn2)c1` (stereo partly drawn) [Compound 111, (3aR,6aS)-5-[[6-(2-chloro-5-fluoro-phenyl)pyridazin-3-yl]oxymethyl]-2-(cyclohexylmethyl)-3,3a,4,5,6,6a-hexahydro-1H-cyclopenta[c]pyrrole], for which the IC50 was found to be 443 nM and the Emin turned out to be 3.62%.

For the molecule `Fc1ccc(Cl)c(-c2ccc(OCC3C[C@@H]4CN(CC5CCOCC5)C[C@@H]4C3)nn2)c1` (stereo partly drawn) [Compound 112, (3aR,6aS)-5-[[6-(2-chloro-5-fluoro-phenyl)pyridazin-3-yl]oxymethyl]-2-(tetrahydropyran-4-ylmethyl)-3,3a,4,5,6,6a-hexahydro-1H-cyclopenta[c]pyrrole], the IC50 was 609 nM and the Emin turned out to be 4.59%.

Take `Fc1ccc(Cl)c(-c2ccc(OCC3C[C@@H]4CN(CC5CCCOC5)C[C@@H]4C3)nn2)c1` (stereo partly drawn) [Compound 113, (3aR,6aS)-5-[[6-(2-chloro-5-fluoro-phenyl)pyridazin-3-yl]oxymethyl]-2-(tetrahydropyran-3-ylmethyl)-3,3a,4,5,6,6a-hexahydro-1H-cyclopenta[c]pyrrole]: the IC50 turned out to be 860 nM and the Emin amounted to 4.76%.

As for `Fc1ccc(Cl)c(-c2ccc(OCC3C[C@@H]4CN(Cc5ccccc5)C[C@@H]4C3)nn2)c1` (stereo partly drawn) [Compound 114, (3aR,6aS)-2-benzyl-5-[[6-(2-chloro-5-fluoro-phenyl)pyridazin-3-yl]oxymethyl]-3,3a,4,5,6,6a-hexahydro-1H-cyclopenta[c]pyrrole], the IC50 worked out at 2500 nM and the Emin stood at 6.02%.

Turning to `Fc1ccc(Cl)c(-c2ccc(OCC3C[C@@H]4CN(Cc5ccccc5F)C[C@@H]4C3)nn2)c1` (stereo partly drawn) [Compound 115, (3aR,6aS)-5-[[6-(2-chloro-5-fluoro-phenyl)pyridazin-3-yl]oxymethyl]-2-[(2-fluorophenyl)methyl]-3,3a,4,5,6,6a-hexahydro-1H-cyclopenta[c]pyrrole], the IC50 stood at 5660 nM and the Emin stood at 9.93%.

Turning to `Fc1ccc(CN2C[C@H]3CC(COc4ccc(-c5cc(F)ccc5Cl)nn4)C[C@H]3C2)cc1` (stereo partly drawn) [Compound 116, (3aR,6aS)-5-[[6-(2-chloro-5-fluoro-phenyl)pyridazin-3-yl]oxymethyl]-2-[(4-fluorophenyl)methyl]-3,3a,4,5,6,6a-hexahydro-1H-cyclopenta[c]pyrrole], the IC50 amounted to 3380 nM and the Emin came out at 6.49%.

Take `Fc1ccc(Cl)c(-c2ccc(OCC3C[C@@H]4CN(Cc5ccccn5)C[C@@H]4C3)nn2)c1` (stereo partly drawn) [Compound 117, (3aR,6aS)-5-[[6-(2-chloro-5-fluoro-phenyl)pyridazin-3-yl]oxymethyl]-2-(2-pyridylmethyl)-3,3a,4,5,6,6a-hexahydro-1H-cyclopenta[c]pyrrole]: the IC50 was determined as 1460 nM and the Emin is 4.82%.

Turning to `Cc1cccnc1CN1C[C@H]2CC(COc3ccc(-c4cc(F)ccc4Cl)nn3)C[C@H]2C1` (stereo partly drawn) [Compound 118, (3aR,6aS)-5-[[6-(2-chloro-5-fluoro-phenyl)pyridazin-3-yl]oxymethyl]-2-[(3-methyl-2-pyridyl)methyl]-3,3a,4,5,6,6a-hexahydro-1H-cyclopenta[c]pyrrole], the IC50 worked out at 694 nM and the Emin worked out at 2.25%.

Regarding `Fc1ccc(Cl)c(-c2ccc(OCC3C[C@@H]4CN(Cc5ccc6c(c5)OCO6)C[C@@H]4C3)nn2)c1` (stereo partly drawn) [Compound 119, (3aR,6aS)-2-(1,3-benzodioxol-5-ylmethyl)-5-[[6-(2-chloro-5-fluoro-phenyl)pyridazin-3-yl]oxymethyl]-3,3a,4,5,6,6a-hexahydro-1H-cyclopenta[c]pyrrole], the IC50 stood at 668 nM and the Emin turned out to be 4.24%.

Turning to `Cc1cnn(C)c1-c1ccc(NCCC2C[C@@H]3CN(CCC(C)(C)C)C[C@@H]3C2)nn1` (stereo partly drawn) [Compound 120, 6-(1,4-Dimethyl-1H-pyrazol-5-yl)-N-(2-((3aR,6aS)-2-(3,3-dimethylbutyl)octahydrocyclopenta[c]pyrrol-5-yl)ethyl)pyridazin-3-amine], the IC50 is 2 nM and the Emin was found to be 3.48%.

In the case of `Cc1cnn(C)c1-c1ccc(NCCC2C[C@@H]3CN(CC45CC6CC(CC(C6)C4)C5)C[C@@H]3C2)nn1` (stereo partly drawn) [Compound 121, N-[2-[(3aR,6aS)-2-(1-adamantylmethyl)-3,3a,4,5,6,6a-hexahydro-1H-cyclopenta[c]pyrrol-5-yl]ethyl]-6-(2,4-dimethylpyrazol-3-yl)pyridazin-3-amine], the IC50 was 47 nM and the Emin was determined as 3.59%.

In the case of `Cc1cnn(C)c1-c1ccc(NCCC2C[C@@H]3CN(CC4CCCOC4)C[C@@H]3C2)nn1` (stereo partly drawn) [Compound 122, N-[2-[(3aR,6aS)-2-(tetrahydropyran-3-ylmethyl)-3,3a,4,5,6,6a-hexahydro-1H-cyclopenta[c]pyrrol-5-yl]ethyl]-6-(2,4-dimethylpyrazol-3-yl)pyridazin-3-amine], the IC50 came to 27.3 nM and the Emin turned out to be 4.29%.

For `Cc1cnn(C)c1-c1ccc(NCCC2C[C@@H]3CN(CC4CC5C=CC4C5)C[C@@H]3C2)nn1` (stereo partly drawn) [Compound 123, N-[2-[(3aR,6aS)-2-(5-bicyclo[2.2.1]hept-2-enylmethyl)-3,3a,4,5,6,6a-hexahydro-1H-cyclopenta[c]pyrrol-5-yl]ethyl]-6-(2,4-dimethylpyrazol-3-yl)pyridazin-3-amine], the IC50 worked out at 6.2 nM and the Emin is on record as 2.16%.

As to `Cc1cccnc1CN1C[C@H]2CC(CCNc3ccc(-c4c(C)cnn4C)nn3)C[C@H]2C1` (stereo partly drawn) [Compound 124, N-[2-[(3aR,6aS)-2-[(3-methyl-2-pyridyl)methyl]-3,3a,4,5,6,6a-hexahydro-1H-cyclopenta[c]pyrrol-5-yl]ethyl]-6-(2,4-dimethylpyrazol-3-yl)pyridazin-3-amine], the IC50 is 20.6 nM and the Emin turned out to be 3.25%.

In the case of `Cc1cnn(C)c1-c1ccc(NCCC2C[C@@H]3CN(CC4CCOCC4)C[C@@H]3C2)nn1` (stereo partly drawn) [Compound 125, N-[2-[(3aR,6aS)-2-(tetrahydropyran-4-ylmethyl)-3,3a,4,5,6,6a-hexahydro-1H-cyclopenta[c]pyrrol-5-yl]ethyl]-6-(2,4-dimethylpyrazol-3-yl)pyridazin-3-amine], the IC50 worked out at 28.7 nM and the Emin is reported as 4.41%.

Take `Cc1cnn(C)c1-c1ccc(NCCC2C[C@@H]3CN(Cc4ccccc4)C[C@@H]3C2)nn1` (stereo partly drawn) [Compound 126, N-[2-[(3aR,6aS)-2-benzyl-3,3a,4,5,6,6a-hexahydro-1H-cyclopenta[c]pyrrol-5-yl]ethyl]-6-(2,4-dimethylpyrazol-3-yl)pyridazin-3-amine]: the half-inhibitory concentration (IC50) came out at 23 nM and the Emin is 3.89%.

Regarding `Cc1cnn(C)c1-c1ccc(NCCC2C[C@@H]3CN(Cc4ccccc4F)C[C@@H]3C2)nn1` (stereo partly drawn) [Compound 127, N-[2-[(3aR,6aS)-2-[(2-fluorophenyl)methyl]-3,3a,4,5,6,6a-hexahydro-1H-cyclopenta[c]pyrrol-5-yl]ethyl]-6-(2,4-dimethylpyrazol-3-yl)pyridazin-3-amine], the IC50 worked out at 57.8 nM and the Emin turned out to be 4.93%.
